What was measured:
auditory hair cells = assay: Histological examination of the cochlea in conventional ototoxic hearing loss animal model; type: in vivo, SD (Sprague-Dawley) rats; conditions: basal and middle turns in the cochlea; cisplatin 16 mg/kg i.p.; forskolin intratympanic; after 5 days
Method: In order to exclude mice having congenitally abnormal hearing, a preliminary hearing test was performed on all mice before the experiment. An auditory brainstem response (ABR) test was conducted on 7-week-old SD (Sprague-Dawley) rats and then 16 mg/kg/7 ml of a cisplatin anticancer drug was administered intraperitoneally once to induce ototoxic hearing loss (FIG. 2). Before and after cisplatin administration, forskolin was intratympanically injected (IT) into one ear once in an amount of 25 μM in 20 μL a total of two times, and physiological saline containing DMSO as a control group was injected into the other ear. After 5 days, an auditory brainstem response (ABR) test and a histological examination were performed to evaluate the effect of preventing induction of forskolin-cAMP activity against ototoxic hearing loss.

[1] = test system: auditory hair cells, supporting cells and spiral ganglion cells in the organ of Corti; assay: Hematoxylin-eosin staining of the cochlea in tumor-induced ototoxic hearing loss animal model; type: in vivo, Balb/c/nu/nu mice; conditions: basal and middle turns of the cochlea; forskolin given with cisplatin
Method: (§1) The produced tumor-induced animal model was classified into (1) a physiological saline group (Vehicle), (2) a forskolin administration group (forskolin), (3) a cisplatin administration group (cisplatin), and (4) a cisplatin+forskolin combination administration group (cisplatin+forskolin), and each drug was administered to each group. Cisplatin was administered at 12 mg/kg 5 times a week, forskolin was administered at 2.5 mg/kg 6 times a week for a total of 2 weeks, the auditory brainstem response test was performed again 1 week after all administration was completed, and hematoxylin-eosin staining was performed for histological analysis. The auditory brainstem response (ABR) test is a method that determines the minimum stimulus level (dB) as a hearing threshold when applying tone burst sounds at 16 kHz and 32 kHz using a TDT ABR device. In addition, loss and damage of the auditory hair cells, supporting cells and spiral ganglion cells in the organ of Corti during the basal and middle turns of the cochlea were evaluated using hematoxylin-eosin staining.

[2] = test system: tumor-induced ototoxic hearing loss animal model; assay: Auditory brainstem response (ABR) test in tumor-induced ototoxic hearing loss animal model; type: in vivo, Balb/c/nu/nu mice; conditions: 1 week after 2 weeks of administration, cisplatin 12 mg/kg 5 times a week, forskolin 2.5 mg/kg 6 times a week
Method: In order to exclude mice having congenitally abnormal hearing, a preliminary hearing test was performed on all mice before the experiment. An auditory brainstem response (ABR) test was conducted on the immunodeficient Balb/c/nu/nu mice and then a lung cancer cell line (A549) was xenografted subcutaneously into the mice to produce a tumor-induced animal model (FIG. 1).
as §1, with “device.” for “device. In addition, loss and damage of the auditory hair cells, supporting cells and spiral ganglion cells in the organ of Corti during the basal and middle turns of the cochlea were evaluated using hematoxylin-eosin staining.”

HEI-OCl cells = assay: Inhibition of cisplatin-induced apoptosis in auditory cell line (calcein AM, cleaved PARP and caspase 3); type: cell-based; conditions: cisplatin 25 μM
Method: An auditory cell line expressing auditory genes (HEI-OCl; House-Ear Institute-organ of Corti 1) was used, and the HEI-OCl cells were incubated in DMEM medium (Dulbecco's modified Eagle's Medium) containing a high concentration of glutamine, supplemented with 10% fetal bovine serum (FBS) and 25 U/ml of interferon gamma at 33° C. and 10% CO2. The cells were treated with cisplatin at a concentration of 25 μM, and the effects of forskolin and retinoic acid were analyzed under conditions in which about 40 to 50% of cells were killed by cisplatin ototoxicity. In order to analyze the effects of forskolin and retinoic acid on ototoxicity, experimental groups were classified into (1) normal, (2) forskolin, (3) retinoic acid, (4) cisplatin, (5) cisplatin+forskolin, (6) cisplatin+retinoic acid, (7) cisplatin+forskolin+retinoic acid. Cisplatin was administered in an amount of 25 μM, forskolin was administered in an amount of 20 μM, and retinoic acid was administered in an amount of 50 μM. Then, viable cells were observed using calcein AM, a fluorescent stain applicable to live cells, and cleaved PARP and caspase 3, as apoptosis markers, were identified at the protein level.

[3] = test system: lung cancer cell line (A549) xenograft; assay: Cisplatin anticancer effect in tumor-induced animal model (tumor size); type: in vivo, Balb/c/nu/nu mice; conditions: intraperitoneal for 5 days, then reared for 7 days
Method: In order to exclude mice having congenitally abnormal hearing, a preliminary hearing test was performed on all mice before the experiment. An auditory brainstem response (ABR) test was conducted on the immunodeficient Balb/c/nu/nu mice and then a lung cancer cell line (A549) was xenografted subcutaneously into the mice to produce a tumor-induced animal model (FIG. 1). After tumor formation in the tumor-induced ototoxic hearing loss animal model of Example 1, mice were randomly classified, and then (1) physiological saline (vehicle), (2) forskolin, (3) cisplatin or (4) a combination of cisplatin and forskolin was administered intraperitoneally to the mice for 5 days, and then the mice were reared for 7 days. The average tumor volume and body weight of each group were measured every week (FIGS. 4A and 4B). In addition, the weight of each of the extracted tumor and kidney was also measured (FIG. 4E).

For N.N.[Cl][Pt][Cl] [cisplatin, cis-diaminedichloroplatinum (II)], the “loss of auditory hair cells (histological examination)” value (auditory hair cells) was “loss of a number of auditory hair cells”, the “loss and damage of auditory outer hair cells (hematoxylin-eosin staining)” value [1] was “a number of the auditory outer hair cells during the basal and middle turns were found to be lost” and the “hearing threshold (ABR)” value ([2]; 16 kHz) was 29 dB. The “hearing threshold (ABR)” value ([2]; 32 kHz) was 31 dB, the “cells killed by cisplatin ototoxicity” value (HEI-OCl cells) was 40 to 50% and the “cell viability / apoptosis (calcein staining, cleaved PARP and caspase 3)” value (HEI-OCl cells; forskolin 20 μM, retinoic acid 50 μM) was “apoptosis of cisplatin-induced auditory cell lines was observed”. The “effect of reducing a tumor size compared to the control group” value [3] was “about 50%”.
